Measured values from patent publication US20180078482A1, “COMPOSITION CONTAINING THEASAPOGENOL DERIVATIVE AS ACTIVE INGREDIENT” (AMOREPACIFIC CORPORATION, priority 2015, published 2018).

What was measured:
5α-reductase = molecular target: T1, 5α-reductase (Homo sapiens, UniProt P31213); assay: Inhibition of 5α-reductase activity ([14C]testosterone to [14C]dihydrotestosterone conversion in HEK293-5αR2 cells); type: cell-based; details: 2 μg/ml, 2 hours at 37° C.; for Conversion rate (%): radioactivity to DHT area/total radioactivity
T1 construct: 3×FLAG; expressed in transfected cells; host or cells: HEK293
T1 sequence (P31213 1-254): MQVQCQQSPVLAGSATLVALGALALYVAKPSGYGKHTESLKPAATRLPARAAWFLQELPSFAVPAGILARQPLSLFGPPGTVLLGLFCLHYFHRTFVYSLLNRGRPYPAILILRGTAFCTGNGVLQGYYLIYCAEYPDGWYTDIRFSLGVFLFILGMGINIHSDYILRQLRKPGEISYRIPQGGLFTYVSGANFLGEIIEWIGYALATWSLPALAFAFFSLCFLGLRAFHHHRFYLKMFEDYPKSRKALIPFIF
Procedure: The 5α-reductase activity inhibiting effect was measured by the ratio of [^14C]testosterone converted into [^14C]dihydrotestosterone in HEK293-5αR2 cells. HEK293 cells were transfected with p3×FLAG-CMV-5αR2 and incubated in a 24-well plate at a density of 2.5×10^5 cells per well (Park et al., 2003, JDS Vol. 31, pp. 91-98). The next day, the medium was replaced with a fresh medium containing an enzyme substrate and an inhibitor, and 0.05 μCi [^14C]testosterone (Amersham Pharmacia biotech, UK) was used as the substrate of the medium. In order to confirm the degree of inhibition, 2 μg/ml of theasapogenol derivative obtained in Preparation Example 1 was added to the medium as a test substance, and the medium was incubated in a 5% CO2 incubator at 37° C. for 2 hours.
Thereafter, the incubated mediums were collected and testosterone was extracted with 800 μl of ethyl acetate. The upper organic solvent layer was separated and dried, and the residue was dissolved again in 50 μl of ethyl acetate and developed on the silica plastic sheet kieselgel 60 F254 by using ethyl acetate-hexane (1:1) as a developing solvent. After the plastic sample was dried in the air, a bath system was used to measure the amounts of isotopes, the dried plastic sheet and an x-ray film were placed in a bath cassette together, and the amounts of isotopes in testosterone and dihydrotestosterone remaining on the film after one week were measured.
(1) Conversion rate: radioactivity to DHT area/total radioactivity
(2) Inhibition rate: 100×(conversion rate of control group−conversion rate of sample)/conversion rate of control group

Fibroblasts = assay: Promotion of collagen biosynthesis (procollagen type (I) ELISA in fibroblasts); type: cell-based; details: 2 μg/ml, 24 hours, untreated group set to 100
Procedure: The collagen biosynthesis promoting effect of the theasapogenol derivative obtained in Preparation Example 1 was measured in comparison with TGF-beta of a positive control.
Fibroblasts were seeded by 10^5 in one well of a 24-well plate and incubated until they grew up to about 90%. This was incubated in serum-free DMEM medium for 24 hours and treated with 2 μg/ml of each of the theasapogenol derivative obtained in Preparation Example 1 and TGF-beta, and incubated in a CO2 incubator for 24 hours. Thereafter, the supernatant was taken out and subjected to the observation using the ELISA kit (procollagen type (I)) to determine whether the procollagen increased or decreased. The results are presented in Table 1, and the collagen synthesizing ability was compared by setting the collagen synthesizing ability of the untreated group to 100.

[1] = 100×(conversion rate of control group−conversion rate of sample)/conversion rate of control group

Inhibition rate (%) (5α-reductase; [1]) | Conversion rate (%) (5α-reductase) | inhibition at 2 µg/mL (5α-reductase; [1]) | Compound | Collagen synthesizing ability (%) (Fibroblasts)
38% | 30% | – | 21-O-angeloyltheasapogenol E3 [Preparation Example 1] | 145.1 ± 12.5%
– | 27% | 44% | CC(C)(C)NC(=O)[C@H]1CC[C@H]2[C@@H]3CC[C@H]4NC(=O)C=C[C@]4(C)[C@H]3CC[C@]12C [Finasteride, reference compound] | –
